In patent publication US4593104A, “2-halo-N-(azole-1-yl-methyl)-substituted acetanilides” (BASF Aktiengesellschaft, priority 1976, dated 1986):

Assays:
[1] = tested on: Bromus spp.; test: preemergence treatment in the greenhouse, % damage; format: in vivo
In short: (§1)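 Ratings, on a 0 to 100 scale, show injury where 100 means no emergence or complete destruction of visible parts. Compounds in water were sprayed either onto freshly sown soil, which was then watered and hooded, or onto plants 3–10 cm tall. Observation lasted 4–6 weeks.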

[2] = tested on: Zea mays; test: preemergence treatment in the greenhouse, % damage; format: in vivo; conditions: 0.5 kg/ha
In short: as §1

[3] = tested on: Setaria spp.; test: preemergence treatment in the greenhouse, % damage; format: in vivo
In short: as §1

[4] = tested on: Echin. c.g.; test: preemergence treatment in the greenhouse, % damage; format: in vivo
In short: as §1

[5] = tested on: Cyp. diff.; test: preemergence treatment in the greenhouse, % damage; format: in vivo
In short: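 Test species were sown separately in sandy loam and held at 25–40 °C (heat-loving) or 15–30 °C (temperate). Actives in water went onto the soil surface immediately (preemergence) or onto 3–10 cm plants (postemergence). A 0–100 scale rates emergence loss or destruction over 4–6 weeks.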

[6] = tested on: Matric. spp.; test: preemergence treatment in the greenhouse, % damage; format: in vivo
In short: as §1

[7] = tested on: Alopec. myosur.; test: preemergence treatment in the greenhouse, % damage; format: in vivo
In short: as §1

[8] = tested on: Solanum nigrum; test: preemergence treatment in the greenhouse, % damage; format: in vivo
In short: as §1

[9] = tested on: Brassica napus; test: preemergence treatment in the greenhouse, % damage; format: in vivo
In short: as §1

[10] = tested on: Arach. hypog.; test: preemergence treatment in the greenhouse, % damage; format: in vivo, Arachis hypogaea
Source text: (§2) The vessels employed were plastic flowerpots having a volume of 300 cm^3; the substrate was a sandy loam containing about 1.5% humus. The seeds of the test plants (see Table 1) were sown shallow, and separated according to species. In the case of Cyperus esculentus, pregerminated tubers were planted. In the preemergence treatment, the active ingredients were then immediately applied to the surface of the soil. They were suspended or emulsified in water as the vehicle, and sprayed through atomizing nozzles. After the agents had been applied, the vessels were lightly sprinkler-irrigated to set germination and growth going, and to activate the chemical agents. The vessels were then covered with transparent plastic hoods until the plants had taken root. This cover ensured uniform germination of the test plants (to the extent that this was not impaired by the chemicals), and prevented readily volatile substances from evaporating.
(§3) For postemergence treatment, the plants were first grown to a height of from 3 to 10 cm, depending on their habit, before treated. Hoods were not placed on the pots. The experiments were set up in the greenhouse, hotter areas (25° to 40° C.) being preferred for heat-loving species, and 15° to 30° C. for plants from moderate climates. The experiments were carried out for from 4 to 6 weeks. During this period the plants were tended and their reaction to the various treatments was assessed. The following tables contain the substances investigated, the application rates in kg/ha of active ingredient, and the test plant species. Assessments were made on a 0 to 100 scale, 0 denoting no damage or normal emergence, and 100 denoting no emergence or complete destruction of at least the visible plant parts.

[11] = tested on: Arach. hypog.; test: tolerance by various oil crops in the greenhouse (Table 8), % damage; format: in vivo, Arachis hypogaea
Source text: as §2, §3

[12] = tested on: Carth. tinct.; test: as above; format: in vivo, Carthamus tincotius
Source text: as §2
For postemergence treatment, the plants were first grown to a height of from 3 to 10 cm, depending on their habit, before treated. Hoods were not placed on the pots. The experiments were set up in the greenhouse, hotter areas (25° to 40° C.) being preferred for heat-loving species, and 15° to 30° C. for plants from moderate climates. […] During this period the plants were tended and their reaction to the various treatments was assessed. […]

[13] = tested on: Glyc. max; test: as above; format: in vivo, Glycine max; conditions: varieties: Dare, Lee 68, SRF 450
Source text: as §2, §3

[14] = tested on: Brassica napus; test: as above; format: in vivo
Source text: as §2, §3

[15] = tested on: Solan. nigrum.; test: herbicidal action in the greenhouse (Table 8), % damage; format: in vivo
Source text: as §2, §3

[16] = tested on: Amar. retro.; test: as above; format: in vivo
Source text: as §2, §3

[17] = tested on: Seta. spp.; test: as above; format: in vivo
Source text: as §2, §3

With COc1cc(C)n(CN(C(=O)CCl)c2c(C)cccc2C)n1 the “% damage” value ([1]; 0.5 kg/ha) was 95%, the “% damage” value [2] was 20% and the “% damage” value ([3]; 0.5 kg/ha) was 98%. The “% damage” value ([4]; 0.5 kg/ha) was 90%, the “% damage” value ([5]; 0.5 kg/ha) was 100% and the “% damage” value ([6]; 0.5 kg/ha) was 95%. For the same compound, the “% damage” value ([7]; 0.5 kg/ha) was 95%, the “% damage” value ([8]; 0.5 kg/ha) was 85% and the “% damage” value ([9]; 0.5 kg/ha) was 5%. For the same compound, the “% damage” value ([10]; 0.5 kg/ha) was 0%.

In the case of Cc1ncn(CN(C(=O)CCl)c2c(C)cccc2C)n1, the “% damage” value ([1]; 1.0 kg/ha) is reported as 98%, the “% damage” value ([3]; 1.0 kg/ha) is reported as 100% and the “% damage” value ([4]; 1.0 kg/ha) is reported as 100%. The “% damage” value ([5]; 1.0 kg/ha) was 100%, the “% damage” value ([6]; 1.0 kg/ha) was 92% and the “% damage” value ([7]; 1.0 kg/ha) was 97%. The “% damage” value ([8]; 1.0 kg/ha) was 100%, the “% damage” value ([9]; 1.0 kg/ha) was 5% and the “% damage” value ([10]; 1.0 kg/ha) was 0%.

In the case of Cc1cccc(C)c1N(Cn1cncn1)C(=O)CCl [Compound 127], the “% damage” value ([11]; 0,5 kg/ha) is reported as 0%, the “% damage” value ([11]; 1,0 kg/ha) is reported as 0% and the “% damage” value ([11]; 2,0 kg/ha) is reported as 10%. For the same compound, the “% damage” value ([12]; 0,5 kg/ha) was 0%, the “% damage” value ([12]; 1,0 kg/ha) was 0% and the “% damage” value ([13]; 0,5 kg/ha) was 0%. The “% damage” value ([13]; 1,0 kg/ha) was 0%, the “% damage” value ([13]; 2,0 kg/ha) was 0% and the “% damage” value ([14]; 0,5 kg/ha) was 0%. For the same compound, the “% damage” value ([14]; 1,0 kg/ha) was 0%, the “% damage” value ([14]; 2,0 kg/ha) was 0% and the “% damage” value ([15]; 0,5 kg/ha) was 70%. For the same compound, the “% damage” value ([15]; 1,0 kg/ha) was 90%, the “% damage” value ([15]; 2,0 kg/ha) was 100% and the “% damage” value ([16]; 0,5 kg/ha) was 82%. For the same compound, the “% damage” value ([16]; 1,0 kg/ha) was 95%, the “% damage” value ([16]; 2,0 kg/ha) was 100% and the “% damage” value ([17]; 0,5 kg/ha) was 95%. For the same compound, the “% damage” value ([17]; 1,0 kg/ha) was 100% and the “% damage” value ([17]; 2,0 kg/ha) was 100%.
